{"source": "patent US9546201B2", "about": "“MUC-1 cytoplasmic domain peptides as inhibitors of cancer” (DANA-FARBER CANCER INSTITUTE, INC., priority 2008, dated 2017)", "key": {"MUC1-negative 293 cells": {"tested_on": "MUC1-negative 293 cells", "experiment": "Viable cell number by trypan blue exclusion, 293 cells", "assay_type": "cell-based", "details": "5 μM", "procedure": "(§1) FIGS. 4A-E. Selectivity of MUC1/CQC for MUC1 expressing breast cancer cells. (FIG. 4A) ZR-75-1 cells were stably infected with an empty lentivirus (vector) or one expressing a MUC1 siRNA. Lysates for the infected cells were immunoblotted with the indicated antibodies. (FIG. 4B) ZR-75-1/vector cells were left untreated (diamonds), and ZR-75-1/vector (squares) and ZR-75-1/MUC1siRNA (triangles) cells were treated with 5 μM MUC1/CQC peptide for the indicated times. Viable cell number was determined by trypan blue exclusion. (FIG. 4C) 293 cells were left untreated (diamonds), and treated with 5 μM MUC1/CQC (squares) or MUC1/AQA (triangles) for the indicated times. Viable cell number was determined by trypan blue exclusion. (FIG. 4D) MCF-10A cells were left untreated (left panel), and treated with 5 μM MUC1/CQC (middle panel) or MUC1/AQA (right panel). At 3 d, cells were analyzed for cell cycle distribution. […] Viable cell number was determined by trypan blue exclusion.\n(§2) Human breast cancer ZR-75-1, ZR-75-1/vector, ZR-75-1/MUC1siRNA (Ren et al., 2004) cell lines were grown in RPMI1640 medium supplemented with 10% heat-inactivated fetal bovine serum (HI-FBS), 100 U/ml penicillin, and 100 μg/ml streptomycin (Invitrogen) in a humidified incubator at 37° C. and 5% CO2. […] Viability was determined by trypan blue exclusion. […]"}, "[1]": {"experiment": "Body weight of nude mice under peptide administration", "assay_type": "in vivo"}, "[2]": {"tested_on": "multiple carcinoma cell lines", "experiment": "Inventors' recent studies of MUC1 C-terminal peptides on carcinoma cell lines", "assay_type": "cell-based", "details": "L-amino acid peptide", "excerpt": "However, these MUC1-C-terminal peptides consists of L-amino acids. […] Consequently, they have generated an all-dextro form of the above described shorter MUC1 C-terminal peptide, in which the L-amino acids were changed to D-amino acids (GO-203). Moreover, to determine the minimum amino acid residues from the MUC1-C-terminal region that are required to retain the cell killing activity, they have also generated many different versions of GO-203 as described in FIG. 8."}, "[3]": {"tested_on": "MCF-10A non-transformed mammary epithelial cell line", "experiment": "Cell cycle distribution and viable cell number, MCF-10A", "assay_type": "cell-based, human", "details": "5 μM", "procedure": "as §1, §2"}}, "note": "“Also recorded” adds a separate entry of the source. Where a SMILES comes first, the peptide text is derived from it. [ ]: non-standard residue; d: D form.", "data": [{"smiles": "CC[C@H](C)[C@H](NC(=O)[C@H](CC(=O)O)NC(=O)[C@H](CC(C)C)NC(=O)[C@H](CCC(N)=O)NC(=O)CNC(=O)[C@H](Cc1ccc(O)cc1)NC(=O)[C@H](CC(N)=O)NC(=O)[C@H](CCCCN)NC(=O)[C@H](CCCNC(=N)N)NC(=O)[C@H](CCCNC(=N)N)NC(=O)[C@H](CS)NC(=O)[C@H](CCC(N)=O)NC(=O)[C@H](CS)NC(=O)[C@@H](CCCNC(=N)N)NC(=O)[C@@H](CCCNC(=N)N)NC(=O)[C@@H](CCCNC(=N)N)NC(=O)[C@@H](CCCNC(=N)N)NC(=O)[C@@H](CCCNC(=N)N)NC(=O)[C@@H](CCCNC(=N)N)NC(=O)[C@@H](CCCNC(=N)N)NC(=O)[C@@H](CCCNC(=N)N)NC(=O)[C@H](N)CCCNC(=N)N)C(=O)N[C@@H](Cc1ccccc1)C(=O)N1CCC[C@H]1C(=O)O", "note": "[MUC1/CQC] (H-[dR][dR][dR][dR][dR][dR][dR][dR][dR]CQCRRKNYGQLDIFP-OH; N-terminus and C-terminus assumed)", "values": [{"measurement": "effect on growth", "setting": "MUC1-negative 293 cells", "value": "no apparent effect"}, {"measurement": "effect on weight of the individual mice", "setting": "[1]; 50 mg/kg IP once each day over 11 d, female nude mice", "value": "no apparent effect"}, {"measurement": "effect on bodyweight after stopping administration", "setting": "[1]; next 28 d after 50 mg/kg IP daily for 11 d, data not shown", "value": "no subsequent effect on bodyweight"}, {"measurement": "growth of carcinoma cell lines", "setting": "[2]", "value": "active in inhibiting growth of multiple carcinoma cell lines"}, {"measurement": "effect on growth", "setting": "[3]", "value": "no effect; also recorded: little effect"}, {"measurement": "effect on cell cycle distribution", "setting": "[3]; 3 d", "value": "no effect"}]}]}
